From patent publication US10729759B2, “Fluorocarbon-linked peptide formulation” (priority 2010, dated 2020)
“Also recorded” adds a separate entry of the source. Read-outs that look alike come from different tables or passages of the source.

What was measured:
[1] = type: physicochemical; conditions: for Further dilution in Mannitol:Water Solubility: FCP 0.167 mM, 1.33% (w/v) mannitol, cloudiness / particulates; for Dispersion in Water Solubility: FCP 1.333 mM in water, vortexed and sonicated, cloudiness (Clear/Cloudy−/Cloudy/Cloudy+) / particulates
Method: The solubility of each FCP in water was assessed. Each FCP was dispersed in 300 μl of water to a final concentration of 1.333 mM and vortexed and sonicated. The typical dispersion conditions were four sequences of three minutes bath sonication interspersed by 30 seconds vortexing. After inspection, the resulting solution was diluted with a mannitol solution (a candidate lyophilisation medium, final concentration of peptide 0.167 mM, 1.33% (w/v) mannitol). Solubility was assessed by visual observation of the cloudiness of the resulting dispersion (scaled: Clear/Cloudy−/Cloudy/Cloudy+) and presence of particulates. […]

[2] = for Ease of solubility, Cycle 1 Vortexing: 10 mg net/ml in 10% (FCP1, 2, 4, 5) or 80% (FCP9, 8) acetic acid; for Ease of solubility, Cycle 1 Sonication / Ease of solubility, Cycle 2 Sonication / Ease of solubility, Cycle 2 Vortexing / Ease of solubility, Cycle 3 Sonication / Ease of solubility, Cycle 3 Vortexing: 10 mg net/ml in 10% or 80% acetic acid; for Visual appearance after dispersion: 10 mg net/ml in AcOH 10% or 80%
[3] = type: physicochemical; conditions: for Percentage acetic acid (% v/v): minimum concentration for acceptable dispersibility and solubility: FCP 2 μmol/ml after acetic acid dispersion; for Visual appearance after dispersion: at the listed acetic acid concentration, FCP 2 μmol/ml
Method: In order to limit the concentration of acetic acid downstream in the formulation process and in the final product, the lowest concentration of acetic acid in water to achieve efficient dispersion and maintain visible solubility was determined for each fluorocarbon-linked peptide. When using mannitol as a cryprotectant, it is important to minimize the acetic acid concentration at the lyophilisation stage in order to achieve a stable and amorphous freeze-dried product. The minimum acetic acid concentration to achieve acceptable dispersibility and solubility of the individual fluorocarbon-linked peptides was determined. The final concentration of fluorocarbon-linked peptide after initial acetic acid dispersion was 2 μmol/ml and after dilution with mannitol, 0.250 μmol/ml.

[4] = type: physicochemical; conditions: 1.33% mannitol, 0.22 μm PVDF filter; for YIELD % of each FCP following sterile filtration, MIX 1: MIX 1 dispersed in water; for YIELD % of each FCP following sterile filtration, MIX 2: MIX 2 dispersed in water

SMILES	Further dilution in Mannitol:Water Solubility [1]	Dispersion in Water Solubility [1]	Ease of solubility, Cycle 1 Vortexing [2]	Ease of solubility, Cycle 1 Sonication [2]	Ease of solubility, Cycle 2 Sonication [2]	Ease of solubility, Cycle 2 Vortexing [2]	Ease of solubility, Cycle 3 Sonication [2]	Ease of solubility, Cycle 3 Vortexing [2]	Visual appearance after dispersion [2]	Percentage acetic acid (% v/v): minimum concentration for acceptable dispersibility and solubility [3] [% v/v]	Visual appearance after dispersion [3]	YIELD % of each FCP following sterile filtration, MIX 1 [4] [%]	YIELD % of each FCP following sterile filtration, MIX 2 [4] [%]	Physical stability of formulation at less than 80% (v/v) acetic acid ([3]; gel or soluble particulates formed over time)
CC[C@H](C)[C@H](NC(=O)[C@H](C)NC(=O)[C@H](CCSC)NC(=O)[C@H](Cc1c[nH]cn1)NC(=O)[C@@H](N)CCCCNC(=O)CCC(F)(F)C(F)(F)C(F)(F)C(F)(F)C(F)(F)C(F)(F)C(F)(F)C(F)(F)F)C(=O)N[C@H](C(=O)N[C@@H](CCCCN)C(=O)N[C@@H](CCCCN)C(=O)N[C@@H](Cc1ccc(O)cc1)C(=O)N[C@H](C(=O)N[C@@H](CO)C(=O)NCC(=O)N[C@@H](CCCNC(=N)N)C(=O)N[C@@H](CCC(N)=O)C(=O)N[C@@H](CCC(=O)O)C(=O)N[C@@H](CCCCN)C(=O)N[C@@H](CC(N)=O)C(=O)N1CCC[C@H]1C(=O)N[C@@H](CO)C(=O)N[C@@H](CC(C)C)C(=O)N[C@@H](CCCNC(=N)N)C(=O)N[C@@H](CCSC)C(=O)N[C@@H](CCCCN)C(=O)N[C@@H](Cc1c[nH]c2ccccc12)C(=O)N[C@@H](CCSC)C(=O)N[C@@H](CCSC)C(=O)N[C@@H](C)C(=O)N[C@@H](CCSC)C(=O)N[C@@H](CCCCN)C(=O)N[C@@H](Cc1ccc(O)cc1)C(=O)N1CCC[C@H]1C(=O)N[C@H](C(=O)N[C@H](C(=O)N[C@@H](C)C(=O)N[C@@H](CC(=O)O)C(=O)N[C@@H](CCCCN)C(N)=O)[C@@H](C)O)[C@@H](C)CC)[C@@H](C)O)[C@@H](C)CC [FCP1]	partially soluble; also recorded: Clear/Particulates	Cloudy/Particulates	Clear	Clear	Clear	Clear	Clear	Clear	Clear	10	Clear	89.9	–	–
CC[C@H](C)[C@H](NC(=O)[C@@H]1CCCN1C(=O)[C@H](C)NC(=O)[C@@H](N)CCCCNC(=O)CCC(F)(F)C(F)(F)C(F)(F)C(F)(F)C(F)(F)C(F)(F)C(F)(F)C(F)(F)F)C(=O)N[C@@H](CCSC)C(=O)N[C@@H](Cc1ccccc1)C(=O)N[C@@H](CO)C(=O)N[C@@H](CC(N)=O)C(=O)N[C@@H](CCCCN)C(=O)N[C@@H](CCSC)C(=O)N[C@@H](C)C(=O)N[C@@H](CCCNC(=N)N)C(=O)N[C@@H](CC(C)C)C(=O)NCC(=O)N[C@@H](CCCCN)C(=O)NCC(=O)N[C@@H](Cc1ccc(O)cc1)C(=O)N[C@@H](CCSC)C(=O)N[C@@H](Cc1ccccc1)C(=O)N[C@@H](CCC(=O)O)C(=O)N[C@@H](CO)C(=O)N[C@@H](CCCCN)C(=O)N[C@@H](CCCNC(=N)N)C(=O)N[C@@H](CCSC)C(=O)N[C@@H](CCCCN)C(=O)N[C@@H](CC(C)C)C(=O)N[C@@H](CCCNC(=N)N)C(=O)N[C@H](C(=O)N[C@@H](CCC(N)=O)C(=O)N[C@H](C(=O)N1CCC[C@H]1C(=O)N[C@@H](C)C(=O)N[C@@H](CCC(=O)O)C(=O)N[C@@H](CCSC)C(=O)N[C@@H](CC(C)C)C(=O)N[C@@H](C)C(N)=O)[C@@H](C)CC)[C@@H](C)O [FCP2]	fully soluble; also recorded: Clear/No Particulates	Cloudy−/No Particulates	Clear	Clear	Clear	Clear	Clear	Clear	Clear	10	Clear	–	97.3	–
CC[C@H](C)[C@H](NC(=O)[C@H](CC(C)C)NC(=O)[C@H](C)NC(=O)[C@H](CO)NC(=O)[C@H](CCCNC(=N)N)NC(=O)[C@H](C)NC(=O)[C@H](CC(C)C)NC(=O)[C@H](Cc1ccccc1)NC(=O)[C@@H](NC(=O)[C@H](CC(C)C)NC(=O)[C@H](CC(=O)O)NC(=O)[C@H](CCC(=O)O)NC(=O)[C@@H](NC(=O)[C@H](CCC(=O)O)NC(=O)[C@H](C)NC(=O)[C@H](CC(N)=O)NC(=O)CNC(=O)[C@@H]1CCCN1C(=O)[C@H](CC(N)=O)NC(=O)[C@H](CCCNC(=N)N)NC(=O)[C@H](CO)NC(=O)[C@H](CCC(=O)O)NC(=O)[C@H](CCCNC(=N)N)NC(=O)[C@@H](NC(=O)[C@H](CCC(N)=O)NC(=O)[C@H](CC(=O)O)NC(=O)[C@@H](N)CCCCNC(=O)CCC(F)(F)C(F)(F)C(F)(F)C(F)(F)C(F)(F)C(F)(F)C(F)(F)C(F)(F)F)C(C)C)[C@@H](C)CC)[C@@H](C)CC)C(=O)N[C@@H](CC(C)C)C(=O)N[C@@H](CCCNC(=N)N)C(=O)NCC(=O)N[C@@H](CO)C(=O)N[C@H](C(=O)N[C@@H](C)C(=O)N[C@@H](Cc1c[nH]cn1)C(=O)N[C@@H](CCCCN)C(=O)N[C@@H](CO)C(N)=O)C(C)C [FCP4]	fully soluble; also recorded: Clear/No Particulates	fully soluble; also recorded: Clear/No Particulates	Clear	Clear	Clear	Clear	Clear	Clear	Clear	10	Clear	25.1	82.3	–
CC[C@H](C)[C@H](NC(=O)[C@H](CO)NC(=O)[C@@H](NC(=O)CNC(=O)[C@H](CC(C)C)NC(=O)[C@@H](NC(=O)[C@@H](NC(=O)[C@H](CO)NC(=O)[C@H](CC(C)C)NC(=O)[C@H](CCSC)NC(=O)[C@H](CC(N)=O)NC(=O)[C@H](Cc1ccccc1)NC(=O)[C@H](CCSC)NC(=O)CNC(=O)[C@H](CCSC)NC(=O)[C@H](CCSC)NC(=O)[C@H](CCSC)NC(=O)CNC(=O)[C@@H]1CCCN1C(=O)[C@H](CO)NC(=O)[C@@H](N)CCCCNC(=O)CCC(F)(F)C(F)(F)C(F)(F)C(F)(F)C(F)(F)C(F)(F)C(F)(F)C(F)(F)F)[C@@H](C)O)C(C)C)C(C)C)C(=O)N[C@@H](CC(C)C)C(=O)N[C@@H](CC(N)=O)C(=O)N[C@@H](CC(C)C)C(=O)NCC(=O)N[C@@H](CCC(N)=O)C(=O)N[C@@H](CCCCN)C(=O)N[C@@H](CCCCN)C(=O)N[C@@H](Cc1ccc(O)cc1)C(=O)N[C@H](C(=O)N[C@@H](CCCCN)C(=O)N[C@H](C(=O)N[C@H](C(=O)N[C@@H](Cc1ccc(O)cc1)C(N)=O)[C@@H](C)O)[C@@H](C)O)[C@@H](C)O [FCP6]	partially soluble; also recorded: Clear/Particulates	Cloudy−/Particulates	–	–	–	–	–	–	–	80	Clear	74.1	8.8	physically unstable over time
